From US20180117150A1, “Combination Therapies for CD38-Positive Hematological Malignances with ANTI-CD38 Antibodies and Cyclophosphamide” (Janssen Biotech, Inc., priority 2016, published 2018)
Where two headings read alike, the source gives them in different places.

How the values were obtained:
MM1S cells [1] = assay: Daratumumab-mediated MM1S tumor cell clearance in co-culture with conditioned THP-1 macrophages (ADCP assay); format: cell-based; conditions: for daratumumab-mediated tumor cell killing by macrophages (% specific MM1S cell clearance): THP-1 conditioned 48 hours with media of treated MM1S, 1 μg/ml daratumumab, E:T 2:1, 18 hours, FIG. 4
Experimental: FIG. 4 illustrates the level of MM1S tumor cell clearance in co-culture of MM1S cells and THP-1 macrophages. Prior to initiation of co-cultures, THP-1 cells were cultured 48 hours in conditioned media generated from untreated MM1S tumor cells or MM1S cells treated with lenalidomide (FIG. 4A), bortezomib (FIG. 4B) or cyclophosphamide (CTX) alone or in combination with bortezomib or lenalidomide (FIG. 4C). MM1S cells were stained with calcein and incubated with daratumumab or IgG1 isotype control ([…]) and co-culture with THP-1 cells at a 2:1 effector to target ratio for 18 hours. Cell frequency was determined using the Accuri C6 (Right). The % specific cell clearance was calculated by the following formula:
100−100*(The frequency of calcein stained MM1S cells in the presence of 1 μg/ml daratumumab/
The frequency of calcein stained MM1S cells in the presence of Isotype control).
Co-cultures of MM1S and THP-1 cells were incubated in the presence of cytochalasin to assess if daratumumab mediated MM1S killing by ADCP. […] FIG. 5 illustrates the level of daratumumab-mediated tumor cell clearance in co-cultures of MM1S and THP-1 cells. Prior to initiation of co-cultures, THP-1 cells were cultured 48 hours in conditioned media generated from untreated MM1S tumor cells or MM1S cells treated with lenalidomide (FIG. 5A) or cyclophosphamide alone or in combination with lenalidomide or bortezomib (FIG. 5B) in the absence or presence of 1 μg/ml cytochalasin D. The % specific cell clearance was calculated by the following formula: […]

[2] = tested on: CD38 expression on multiple myeloma cells (MM1S); assay: Flow cytometry of cell surface CD38 expression on treated MM1S cells; conditions: 48 hours after treatment, CTX 2.5, 5, 10 μM, CTX 10 μM with Bort 1 nM or Len 1 μM, FIG. 1
Experimental: (§1) Cells: The multiple myeloma cell line, MM1S, was sub-cultured in RPMI 1640 media supplemented with 10% FBS and 50 IU/ml penicillin and 50 μg/ml Streptomycin. […] THP-1 cells were sub-cultured in RPMI 1640 media supplemented with 10% FBS and 50 IU/ml Penicillin and 50 μg/ml streptomycin. Cells were plated at a cell density of 2×10^5 cells/ml for experiments. […] Fresh media was added and the cells were further incubated for 24 hours after collecting the conditioned media. […] All antibodies were purchased from BD Pharmingen™ unless otherwise stated. Cells were stained with anti-CD38 (APC-conjugated) and anti-CD47 (FITC-conjugated, eBiosciences) antibodies and the level of expression of CD38 and CD47 was assessed. Sytox advanced reagents were used to assess cell death. Cells were analysed by flow cytometry. Sytox positive cells were excluded from analysis. The mean fluorescent intensity was calculated by expressing the fluorescent intensity of each sample relative to the cell size. […] FcγRI and FcγRlla/b expression was assessed by flow cytometry 48 hours later using anti-FcγRI (APC-conjugated) and anti- FcγRIIa/b (PE-conjugated) antibodies. The mean fluorescent intensity was calculated by expressing the fluorescent intensity of each sample relative to the cell size and subtracting the values for the isotype control/unstained samples.

[3] = tested on: CD47 on CD45-CD19-CD138+ plasma cells; conditions: 24 hour treatment vs baseline
Experimental: Ethics: Pre-screened newly diagnosed MM patients were enrolled into the sub-clinical study by informed consent according to predetermined protocols and standard operating procedures for sample draw and included extraction of relevant details from medical records.
Samples Isolation: Isolation of mononuclear cells (MC) from PB and BM aspirates were performed by layering 3mL EDTA-anti-coagulated sample over 3mL endotoxin-free Ficoll Plaque density-gradient medium (GE Healthcare, Little Chalfont, United Kingdom) in 15-mL Falcon tubes (Sarstedt, North Rhine-Westphalia, Niimbrecht, Germany), and centrifuged at 420 relative centrifugal force (RCF) for 22 minutes at 4° C. without braking. The “buffy coat” layer was isolated and washed twice with Fluorescence-activated cell sorting (FACS buffer) [2% foetal calf serum (Lonza, Basel, Switzerland), PBS and 0.05% NaN3 (Sigma-Aldrich, St. Louis, Mo., USA)]. […] Cells were counted using a haemocytometer and 5×10^5 cells per sample were stained for phenotypic characterisation by flow cytometry
Characterisation Studies: Plasma cells: Cell surface expression of CD38, CD47, CD319 (SLAMF7), B-cell maturation antigen (BCMA), MIC A/B, Programmed death-ligand (PDL) 1, PDL2, CD54, CD11a and CD48 were analysed on CD45-CD19-CD138+ Plasma cells by flow cytometry. […]

[4] = tested on: CD47 expression on multiple myeloma cells (MM1S); assay: Flow cytometry of cell surface CD47 expression on treated MM1S cells; conditions: 24 hours after treatment, CTX 2.5, 5, 10 μM, CTX 10 μM with Bort 1 nM or Len 1 μM, FIG. 2C
Experimental: as §1

[5] = tested on: CD64 (FcγRI) expression on THP-1 macrophages; assay: CD64 (FcγRI) expression on THP-1 macrophages incubated in conditioned media from treated MM1S cells; conditions: THP-1 cells, 48 hours in conditioned media from treated MM1S cells; FIG. 3A
Experimental: as §1

MM1S cells [6] = format: cell-based, human; conditions: for proportion of tumour cell clearance accounted for by ADCP: ± 1 μg/ml cytochalasin D, n=1
Experimental: Antibody Dependant cellular phagocytosis (ADCP): To determine the number of macrophages per sample, 50 μl of 5×10^6 cells/mL concentration of MC isolated from PB and BM were diluted using 150 μl FACS buffer. Based on forward and side scatter profiles, the total number of macrophages were determined by timed acquisition events per unit volume using an Accuri™ C6. […] Cells were washed, incubated with mouse anti-human CD45-APC (BD Biosciences, San Jose, CA) and mouse anti-human CD14-PerCP-Cy5.5 (Miltenyi Biotech, Cologne, Germany) for 15 mins, then washed and re-suspended in 200 μl FACS buffer for sample acquisition. Macrophage and MM1S cells were gated using CFSE+ and CD45+CD14+ cells gating. Cell frequency was determined using the BD Canto IITM flow cytometer. Antibody-dependent phagocytosis was assessed and quanti?ed as follows: Phagocytosis was quanti?ed by frequency of remaining target cells (CFSE positive) with and without Ab treatment or isotype control. […] ADCP mediated clearance was calculated using the following formula: 100-100*(Proportion of live Dara-treated MM1S cells in untreated macrophage co-culture/ Proportion of live Dara-treated MM1S cells in CytoD conditioned macrophage co-culture).

[7] = tested on: CD32 (FcγRIIa/b) expression on THP-1 macrophages; assay: CD32 (FcγRIIa/b) expression on THP-1 macrophages incubated in conditioned media from treated MM1S cells; conditions: THP-1 cells, 48 hours in conditioned media from treated MM1S cells; FIG. 3B
Experimental: as §1

C=C1[C@@H](C)[C@H]2[C@H](Cc3ccccc3)NC(=O)[C@]23[C@H](OC(C)=O)/C=C/[C@@](C)(O)C(=O)[C@@H](C)C/C=C/[C@H]3[C@@H]1O [Cytochalasin D]
daratumumab-mediated tumor cell clearance in the presence of cytochalasin D (MM1S cells [1]; 1 μg/ml cytochalasin D in MM1S/THP-1 co-cultures, FIG. 5): reduced

CC(C)C[C@H](NC(=O)[C@H](Cc1ccccc1)NC(=O)c1cnccn1)B(O)O [bortezomib]
daratumumab-mediated tumor cell killing by macrophages (% specific MM1S cell clearance) (MM1S cells [1]): potentiated

O=P1(N(CCCl)CCCl)NCCCO1 (centres unmarked) [cyclophosphamide]
mean fluorescence intensity (MFI) of cell surface CD38 expression [2]: induced | CD47 surface expression (MFI) on plasma cells, bone marrow ([3]; BM, n=3, P=0.0555, FIG. 6B): decreased | CD47 surface expression (MFI) on plasma cells, peripheral blood ([3]; PB, n=3, cyclophosphamide 150-300 mg/m^2, FIG. 6A): decreased | daratumumab-mediated tumor cell killing by macrophages (% specific MM1S cell clearance) (MM1S cells [1]): potentiated | daratumumab-mediated tumor cell killing by macrophages (% specific MM1S cell clearance) (MM1S cells [1]; listed as Cyclophosphamide): augmented | mechanism of the potentiation of anti-myeloma activity of daratumumab (MM1S cells [1]; concluded from cytochalasin D inhibition, FIG. 5): dependent on macrophage mediated ADCP | mean fluorescence intensity (MFI) of cell surface CD47 expression [4]: reduced | MFI of cell surface CD64 (FcγRI) expression [5]: induced | proportion of tumour cell clearance accounted for by ADCP (MM1S cells [6]; BM macrophages 24 hours after treatment with cyclophosphamide, FIG. 8C): > 25% | tumour cytotoxicity by macrophages in co-culture of PB or BM-derived macrophages and multiple myeloma cells (MM1S cells [6]; patient macrophages 24 hours after treatment vs prior to treatment): augmented | MFI of cell surface CD32 (FcγRIIa/b) expression [7]: induced

Nc1cccc2c1CN(C1CCC(=O)NC1=O)C2=O (centres unmarked) [lenalidomide]
daratumumab-mediated tumor cell killing by macrophages (% specific MM1S cell clearance) (MM1S cells [1]): potentiated | daratumumab-mediated tumor cell killing by macrophages (% specific MM1S cell clearance) (MM1S cells [1]; listed as lenalodomide): augmented

daratumumab
proportion of tumour cell clearance accounted for by ADCP (MM1S cells [6]; BM macrophages prior to treatment, FIG. 8C): > 15% | difference between Dara and Isotype within the ADCP assay (MM1S cells [6]; patient had received Daratumumab 16 mg/kg infusion, FIG. 8C): minimal difference
